The source made the active and inactive calls.
What was measured:
fMet-Leu-Phe receptor = biological target: T1, fMet-Leu-Phe receptor (Homo sapiens, UniProt P21462); assay: FPR ligands, dose response (AID 519); assay type: functional
T1 sequence (P21462 whole entry): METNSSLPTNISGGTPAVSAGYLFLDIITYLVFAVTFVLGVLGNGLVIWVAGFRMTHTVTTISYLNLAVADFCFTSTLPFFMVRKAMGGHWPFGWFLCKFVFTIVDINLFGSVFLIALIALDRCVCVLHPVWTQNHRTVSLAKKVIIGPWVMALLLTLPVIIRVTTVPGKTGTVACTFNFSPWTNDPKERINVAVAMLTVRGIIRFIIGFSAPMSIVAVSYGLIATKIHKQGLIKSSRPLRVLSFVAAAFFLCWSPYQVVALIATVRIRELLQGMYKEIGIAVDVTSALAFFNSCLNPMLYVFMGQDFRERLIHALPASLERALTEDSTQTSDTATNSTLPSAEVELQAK

[1] = growth suppression of beta-catenin-knockout colon cells, dose response, cell-based, HCT116, human colon tumor (AID 1045); assay type: functional;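 further: HCT116 colon tumor cells with beta catenin knocked out; cells exposed to compound for 60 hours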
[2] = human group III sPLA2 inhibitors, dose response, biochemical, QFRET, IC50 (AID 743457);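 further: green fluorescence rise as the enzyme cleaves BODIPY PC-A2 in liposomes; potency for inhibition of the enzyme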
[3] = growth suppression of PTEN-null colon cells, dose response, cell-based, HCT116 PTEN knockout (AID 1047); assay type: functional;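 further: HCT116 colon tumor cells with PTEN knocked out; cells exposed to compound for 60 hours before readout; potency for loss of cell viability measured by luminescence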
Protein RecA = biological target: T2, Protein RecA (Mycobacterium tuberculosis, UniProt P9WHJ3); assay: Fluorescence Cell-Free Homogeneous Dose Retest to Identify Inhibitors of RecA-Intein Splicing Activity. [Related pubchem assays (depositor defined):AID2097, AID2223, AID489010, AID492950]; assay type: functional
T2 sequence (P9WHJ3 whole entry): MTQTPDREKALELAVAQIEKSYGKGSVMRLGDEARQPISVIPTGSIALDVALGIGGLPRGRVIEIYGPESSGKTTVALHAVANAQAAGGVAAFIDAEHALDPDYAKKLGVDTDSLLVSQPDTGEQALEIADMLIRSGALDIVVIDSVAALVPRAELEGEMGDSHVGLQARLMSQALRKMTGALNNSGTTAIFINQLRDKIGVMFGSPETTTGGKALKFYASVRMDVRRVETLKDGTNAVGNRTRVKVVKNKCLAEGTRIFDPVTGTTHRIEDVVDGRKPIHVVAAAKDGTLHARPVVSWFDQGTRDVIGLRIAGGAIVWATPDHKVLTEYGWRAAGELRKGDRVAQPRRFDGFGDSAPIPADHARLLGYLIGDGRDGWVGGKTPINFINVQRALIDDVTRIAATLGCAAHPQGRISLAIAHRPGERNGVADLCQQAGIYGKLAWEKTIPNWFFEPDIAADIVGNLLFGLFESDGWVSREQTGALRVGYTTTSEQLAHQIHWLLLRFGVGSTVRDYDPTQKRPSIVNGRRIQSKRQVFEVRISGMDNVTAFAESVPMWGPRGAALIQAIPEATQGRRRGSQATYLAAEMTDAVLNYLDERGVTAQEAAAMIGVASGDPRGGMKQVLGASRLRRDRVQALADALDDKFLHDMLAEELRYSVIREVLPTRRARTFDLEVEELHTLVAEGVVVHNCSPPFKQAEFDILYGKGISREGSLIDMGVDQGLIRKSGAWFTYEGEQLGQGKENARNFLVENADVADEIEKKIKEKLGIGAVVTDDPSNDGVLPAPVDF

Genome polyprotein = Genome polyprotein (dengue virus type 2, UniProt P29990); assay: Dengue-2 NS5 methyltransferase inhibitors, primary screen, biochemical, confirmation dose response (AID 588689); assay type: functional
Sequence of Genome polyprotein (P29990 2492-3391 limits assumed): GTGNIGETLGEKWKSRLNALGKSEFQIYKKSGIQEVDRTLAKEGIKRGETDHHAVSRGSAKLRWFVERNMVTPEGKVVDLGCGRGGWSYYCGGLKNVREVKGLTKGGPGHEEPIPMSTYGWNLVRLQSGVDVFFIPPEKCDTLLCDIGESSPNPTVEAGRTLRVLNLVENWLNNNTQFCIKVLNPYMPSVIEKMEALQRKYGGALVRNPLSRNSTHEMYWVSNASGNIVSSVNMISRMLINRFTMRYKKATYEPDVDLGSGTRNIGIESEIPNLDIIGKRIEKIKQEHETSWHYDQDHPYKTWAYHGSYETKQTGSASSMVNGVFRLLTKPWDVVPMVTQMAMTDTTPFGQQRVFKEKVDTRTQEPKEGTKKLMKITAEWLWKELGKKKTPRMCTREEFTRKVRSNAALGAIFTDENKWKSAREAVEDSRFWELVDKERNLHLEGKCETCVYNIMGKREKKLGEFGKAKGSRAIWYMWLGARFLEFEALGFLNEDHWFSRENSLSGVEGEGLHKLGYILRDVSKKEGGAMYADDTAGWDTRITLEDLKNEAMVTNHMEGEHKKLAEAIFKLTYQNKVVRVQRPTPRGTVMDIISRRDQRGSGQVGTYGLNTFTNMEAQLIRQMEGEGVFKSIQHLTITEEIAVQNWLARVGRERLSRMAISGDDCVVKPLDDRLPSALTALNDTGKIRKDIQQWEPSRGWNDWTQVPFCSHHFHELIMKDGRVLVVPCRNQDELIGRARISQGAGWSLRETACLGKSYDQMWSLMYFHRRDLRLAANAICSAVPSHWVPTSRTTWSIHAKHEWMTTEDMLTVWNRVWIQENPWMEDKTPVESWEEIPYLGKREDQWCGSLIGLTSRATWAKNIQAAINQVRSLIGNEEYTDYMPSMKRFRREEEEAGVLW

[4] = biological target: T3, Replicative DNA helicase DnaB (Mycobacterium tuberculosis, UniProt P9WMR3); assay: DnaB intein splicing inhibitors, dose response, biochemical, cell-free fluorescence (AID 449749); assay type: functional
T3 sequence (P9WMR3 whole entry): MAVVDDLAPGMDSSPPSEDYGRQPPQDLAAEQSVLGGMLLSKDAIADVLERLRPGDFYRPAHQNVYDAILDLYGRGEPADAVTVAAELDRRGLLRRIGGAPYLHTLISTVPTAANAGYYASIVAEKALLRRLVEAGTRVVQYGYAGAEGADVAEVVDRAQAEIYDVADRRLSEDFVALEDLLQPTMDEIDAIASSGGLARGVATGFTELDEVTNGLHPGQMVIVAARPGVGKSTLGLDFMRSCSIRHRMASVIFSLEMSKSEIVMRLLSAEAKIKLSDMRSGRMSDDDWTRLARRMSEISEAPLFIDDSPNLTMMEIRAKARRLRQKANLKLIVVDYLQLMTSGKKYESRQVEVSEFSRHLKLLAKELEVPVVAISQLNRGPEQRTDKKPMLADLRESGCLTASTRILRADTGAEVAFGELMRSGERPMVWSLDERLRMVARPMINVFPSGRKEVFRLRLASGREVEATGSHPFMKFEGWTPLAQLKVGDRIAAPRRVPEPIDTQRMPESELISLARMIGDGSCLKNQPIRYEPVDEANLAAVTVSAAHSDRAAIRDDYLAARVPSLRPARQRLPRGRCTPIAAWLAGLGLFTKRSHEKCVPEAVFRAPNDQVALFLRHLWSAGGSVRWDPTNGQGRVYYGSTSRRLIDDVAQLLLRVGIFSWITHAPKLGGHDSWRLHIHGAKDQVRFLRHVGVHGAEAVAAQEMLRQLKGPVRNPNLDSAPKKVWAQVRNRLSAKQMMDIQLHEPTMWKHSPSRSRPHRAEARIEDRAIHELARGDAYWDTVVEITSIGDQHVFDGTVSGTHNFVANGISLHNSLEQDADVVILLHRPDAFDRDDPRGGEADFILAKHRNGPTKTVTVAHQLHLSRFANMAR

[5] = biological target: T4, Tyrosyl-DNA phosphodiesterase 2 (Homo sapiens, UniProt O95551); assay: human TDP2 enzyme inhibitors, dose response, biochemical, epi absorbance, IC50 (AID 743297)
T4 sequence (O95551 whole entry): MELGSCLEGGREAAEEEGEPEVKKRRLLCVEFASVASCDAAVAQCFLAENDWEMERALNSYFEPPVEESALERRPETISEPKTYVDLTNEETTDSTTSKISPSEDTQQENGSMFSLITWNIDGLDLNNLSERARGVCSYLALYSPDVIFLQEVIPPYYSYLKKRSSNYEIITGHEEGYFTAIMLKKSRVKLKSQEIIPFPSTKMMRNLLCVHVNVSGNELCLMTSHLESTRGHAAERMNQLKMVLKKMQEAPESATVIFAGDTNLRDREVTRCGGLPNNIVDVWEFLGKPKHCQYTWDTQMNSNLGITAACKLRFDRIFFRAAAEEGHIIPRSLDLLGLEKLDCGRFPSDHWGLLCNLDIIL

[6] = biological target: T5, Histone-lysine N-methyltransferase NSD2 (Homo sapiens, UniProt O96028); assay type: biochemical
T5 sequence (O96028 whole entry): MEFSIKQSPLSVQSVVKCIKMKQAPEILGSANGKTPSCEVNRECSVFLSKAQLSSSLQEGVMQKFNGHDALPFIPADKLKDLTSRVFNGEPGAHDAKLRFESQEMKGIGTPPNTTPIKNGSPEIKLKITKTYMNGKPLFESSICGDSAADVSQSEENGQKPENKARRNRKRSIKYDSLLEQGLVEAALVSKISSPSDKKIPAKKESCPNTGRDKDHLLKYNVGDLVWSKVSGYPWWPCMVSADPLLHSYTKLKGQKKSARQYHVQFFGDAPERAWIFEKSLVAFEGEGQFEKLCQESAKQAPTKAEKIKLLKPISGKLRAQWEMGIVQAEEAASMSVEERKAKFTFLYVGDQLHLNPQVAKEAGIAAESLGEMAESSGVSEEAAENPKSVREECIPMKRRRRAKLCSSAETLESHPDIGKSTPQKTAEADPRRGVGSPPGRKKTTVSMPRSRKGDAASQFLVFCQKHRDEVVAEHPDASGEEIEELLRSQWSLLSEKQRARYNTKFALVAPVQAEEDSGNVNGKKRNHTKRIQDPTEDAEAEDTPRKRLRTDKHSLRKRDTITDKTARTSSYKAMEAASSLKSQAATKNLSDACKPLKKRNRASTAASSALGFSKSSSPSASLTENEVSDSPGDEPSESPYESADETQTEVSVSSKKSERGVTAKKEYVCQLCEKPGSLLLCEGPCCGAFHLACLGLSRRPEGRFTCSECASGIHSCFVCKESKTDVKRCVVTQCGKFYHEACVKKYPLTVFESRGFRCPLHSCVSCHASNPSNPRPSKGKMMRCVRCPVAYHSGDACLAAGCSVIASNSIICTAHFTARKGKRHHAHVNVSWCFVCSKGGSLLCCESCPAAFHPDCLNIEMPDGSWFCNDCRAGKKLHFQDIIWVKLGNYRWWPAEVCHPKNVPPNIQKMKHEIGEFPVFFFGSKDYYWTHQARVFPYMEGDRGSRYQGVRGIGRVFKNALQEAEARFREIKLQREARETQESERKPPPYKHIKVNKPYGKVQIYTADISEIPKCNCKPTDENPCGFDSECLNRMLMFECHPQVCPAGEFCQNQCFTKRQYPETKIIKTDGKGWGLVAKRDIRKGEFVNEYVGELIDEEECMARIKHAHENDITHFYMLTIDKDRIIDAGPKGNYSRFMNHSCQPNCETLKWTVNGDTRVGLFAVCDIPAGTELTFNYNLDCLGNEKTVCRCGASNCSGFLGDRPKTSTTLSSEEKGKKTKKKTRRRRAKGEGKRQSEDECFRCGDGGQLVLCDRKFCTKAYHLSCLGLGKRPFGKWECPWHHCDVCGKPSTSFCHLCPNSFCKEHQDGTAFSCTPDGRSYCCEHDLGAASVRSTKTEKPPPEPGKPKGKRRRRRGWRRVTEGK

Paired box protein Pax-8 = Paired box protein Pax-8 (Homo sapiens, UniProt Q06710); assay: inhibitors of PAX8-driven TPO luciferase reporter, dose response, RMG-I cells, cherry-pick (AID 687027); assay type: functional, cell-based;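 further: luciferase reporter driven by Pax8 target thyroperoxidase promoter measured by SteadyGlo luminescence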
Sequence of Paired box protein Pax-8 (Q06710 whole entry): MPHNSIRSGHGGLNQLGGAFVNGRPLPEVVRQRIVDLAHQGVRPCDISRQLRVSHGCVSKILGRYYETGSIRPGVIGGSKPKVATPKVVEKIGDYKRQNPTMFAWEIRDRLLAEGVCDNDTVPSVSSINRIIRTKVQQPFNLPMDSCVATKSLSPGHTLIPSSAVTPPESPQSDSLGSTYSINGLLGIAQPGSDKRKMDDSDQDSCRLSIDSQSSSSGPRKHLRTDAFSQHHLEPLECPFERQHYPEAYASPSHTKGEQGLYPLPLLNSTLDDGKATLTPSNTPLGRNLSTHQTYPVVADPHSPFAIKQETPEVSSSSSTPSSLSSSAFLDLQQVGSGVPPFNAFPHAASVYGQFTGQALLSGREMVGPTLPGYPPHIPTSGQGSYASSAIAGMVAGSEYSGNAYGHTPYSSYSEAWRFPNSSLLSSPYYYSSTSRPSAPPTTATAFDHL

[7] = IGROV1 ovarian cancer cell cytotoxicity, dose response, PAX8 inhibitor project, plate reader, dry powder samples (AID 743043); assay type: functional, cell-based; conditions: IGROV-1
[8] = NIH:OVCAR-3 ovarian cancer cell cytotoxicity, dose response, PAX8 inhibitor project, plate reader, dry powder samples (AID 743044); assay type: functional, cell-based
[9] = A549 cell cytotoxicity, dose response, cytotoxicity control, plate reader, cherry-pick, antagonist series (AID 743412); assay type: functional, cell-based
[10] = LGR2 antagonists, dose response, cell-based, HEK293, CRE-luciferase reporter, cherry pick, set 2 (AID 743343); assay type: functional;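 further: transfected cells were stimulated with diluted bursicon conditioned medium after compound addition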
[11] = MC4R antagonists, dose response, counter-screen for LGR2 antagonist project, cell-based, plate reader, cherry pick (AID 743444); assay type: functional;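 further: transfected HEK 293 cells stimulated with alpha-MSH peptide; potency of inhibitors of the alpha-MSH evoked signal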
[12] = HepG2 cell cytotoxicity, dose response, cytotoxicity control, plate reader, cherry-pick, antagonist series (AID 743416); assay type: functional, cell-based

With `COCCCN1C(=O)C(O)=C(C(=O)c2ccccc2)C1c1ccc2c(c1)OCO2` (stereo not drawn) the Ki (fMet-Leu-Phe receptor) was 29.6 µM (inactive).

For `Cc1ccc(C)c(N2CCN(S(=O)(=O)c3c(C)noc3/C=C/N(C)C)CC2)c1`, the EC50 [1] was 32.6 µM (active), the IC50 [2] was > 122 µM (inactive) and the EC50 [3] was 26.5 µM (active).

For `Cc1ccc(N=C(S)NNC(=O)c2ccccc2O)c(C)c1`, the IC50 [2] was > 122 µM (inactive).

With `COc1cccc(C(c2c(C)nn(-c3ccccc3)c2O)c2c(C)nn(-c3ccccc3)c2O)c1OC` the EC50 (Protein RecA) was 0.81 µM (active), the IC50 (Genome polyprotein) was 61.1 µM (active) and the AC50 [4] was 1.25 µM (active). For the same compound, the IC50 [5] was 24.7 µM (inactive).

For `Cc1oc2cc(O)cc(O)c2c(=O)c1-c1ccc2c(c1)OCCCO2`, the Ki (fMet-Leu-Phe receptor) was > 66.7 µM (inactive).

In the case of `O=C1Nc2c(Cl)cccc2C1=O`, the AC50 [6] is reported as 9.86 µM (active).

With `C[C@H](CO)N1C[C@H](C)[C@@H](CN(C)Cc2ccccc2)Oc2ccc(NC(=O)Nc3ccc(C(F)(F)F)cc3)cc2CC1=O` the AC50 (Paired box protein Pax-8) was 9.3 µM (active), the AC50 [7] was 46.6 µM (active) and the AC50 [8] was 51.8 µM (active).

For `N#C[C@@H]1[C@H](c2ccc(C#Cc3ccccc3F)cc2)[C@@H](CO)N1C(=O)C1CCCC1`, the AC50 [9] was > 52 µM (inactive), the AC50 [10] was 8.84 µM (active) and the AC50 [11] was 6.34 µM (active). The AC50 [12] was 39.6 µM (active).

Reference: ChEMBL document CHEMBL1201862, “PubChem BioAssay data set” (2004)
